Several values for one entry are separate records, joined by “and”; a condition that tells them apart may be missing. Equal values may be shown once. Each block holds one compound with its values, some of them ahead of it.
Tested on: COR L88 complex tumor spheroid viability
Assay: Anticancer human tumor COR L88 cell line growth inhibition;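 note: compound exposure lasted 7 days before viability readout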;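 for viability, T/C: percent of DMSO vehicle-treated spheroids = 100%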
Conditions: for viability, T/C: stronger effect = lower value
Summary of the method: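 Single agents and combinations were tested on spheroids built from tumor cells plus HUVEC and hMSC, at half-log dilutions starting at or near clinical Cmax, else 10 microM; final DMSO 0.25% (v/v).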

[1] = curve of first compound, second compound 0.003 µM
[2] = curve of first compound, second compound 0.00949 µM
[3] = curve of first compound, second compound 0.03 µM
[4] = curve of first compound, second compound 0.0949 µM
[5] = curve of first compound, second compound 0.3 µM

Structure (SMILES): COc1cc(C)[nH]c(=O)c1CN1CCc2c(Cl)cc(C(OC)C3COC3)c(Cl)c2C1=O (stereo unspecified) + Cn1nnc2c(C(N)=O)ncn2c1=O
IC50 (curve of first compound, second compound 1 µM): > 10000 nM
IC50 (curve of first compound, second compound 3.16 µM): > 10000 nM
IC50 (curve of first compound, second compound 10 µM): 549 nM
IC50 (curve of first compound, second compound 31.6 µM): 111 nM
IC50 (curve of first compound, second compound 100 µM): < 31.6 nM
viability, T/C (second compound 1 µM, first compound 0.0316 µM): 76.1%
viability, T/C (second compound 1 µM, first compound 0.1 µM): 75%
viability, T/C (second compound 1 µM, first compound 0.316 µM): 71.3%
viability, T/C (second compound 1 µM, first compound 1 µM): 65.9%
viability, T/C (second compound 1 µM, first compound 3.16 µM): 67.5%
viability, T/C (second compound 1 µM, first compound 10 µM): 66.6%
viability, T/C (second compound 3.16 µM, first compound 0.0316 µM): 74%
viability, T/C (second compound 3.16 µM, first compound 0.1 µM): 74.8%
viability, T/C (second compound 3.16 µM, first compound 0.316 µM): 63.4%
viability, T/C (second compound 3.16 µM, first compound 1 µM): 71.6%
viability, T/C (second compound 3.16 µM, first compound 3.16 µM): 69.7%
viability, T/C (second compound 3.16 µM, first compound 10 µM): 68.7%
viability, T/C (second compound 10 µM, first compound 0.0316 µM): 62.7%
viability, T/C (second compound 10 µM, first compound 0.1 µM): 57.4%
viability, T/C (second compound 10 µM, first compound 0.316 µM): 48.8%
viability, T/C (second compound 10 µM, first compound 1 µM): 50.3%
viability, T/C (second compound 10 µM, first compound 3.16 µM): 46.6%
viability, T/C (second compound 10 µM, first compound 10 µM): 43.2%
viability, T/C (second compound 31.6 µM, first compound 0.0316 µM): 55.5%
viability, T/C (second compound 31.6 µM, first compound 0.1 µM): 51.5%
viability, T/C (second compound 31.6 µM, first compound 0.316 µM): 39.7%
viability, T/C (second compound 31.6 µM, first compound 1 µM): 37%
viability, T/C (second compound 31.6 µM, first compound 3.16 µM): 33.3%
viability, T/C (second compound 31.6 µM, first compound 10 µM): 33.6%
viability, T/C (second compound 100 µM, first compound 0.0316 µM): 49%
viability, T/C (second compound 100 µM, first compound 0.1 µM): 43.5%
viability, T/C (second compound 100 µM, first compound 0.316 µM): 37.2%
viability, T/C (second compound 100 µM, first compound 1 µM): 35.3%
viability, T/C (second compound 100 µM, first compound 3.16 µM): 33.3%
viability, T/C (second compound 100 µM, first compound 10 µM): 31.6%

IC50 (compound alone, run of 10/17/2019): 45.7 nM [middle of 5 runs]
IC50 (compound alone, run of 10/25/2019): > 300 nM and 163 nM and 172 nM
Structure (SMILES): CC[C@@]1(O)C(=O)OCc2c1cc1n(c2=O)Cc2cc3c(CN(C)C)c(O)ccc3nc2-1
viability, T/C (compound 0.00949 µM): 76% [middle of 10 runs]
viability, T/C (compound 0.03 µM): 55% [middle of 10 runs]
viability, T/C (compound 0.0949 µM): 52% [middle of 10 runs]
viability, T/C (compound 0.3 µM): 48.1% [middle of 10 runs]

Structure (SMILES): Cc1cc(C)c(CNC(=O)c2cc(-c3ccc(CN4CCOCC4)cc3)cc3c2cnn3C2CCCC2)c(=O)[nH]1 + CC[C@@]1(O)C(=O)OCc2c1cc1n(c2=O)Cc2cc3c(CN(C)C)c(O)ccc3nc2-1
IC50 [1]: 8330 nM
IC50 [2]: > 10000 nM
IC50 [3]: 252 nM
IC50 [4]: 44.1 nM
IC50 [5]: < 31.6 nM
viability, T/C (second compound 0.003 µM, first compound 0.0316 µM): 87%
viability, T/C (second compound 0.003 µM, first compound 0.1 µM): 91.7%
viability, T/C (second compound 0.003 µM, first compound 0.316 µM): 90.4%
viability, T/C (second compound 0.003 µM, first compound 1 µM): 80.8%
viability, T/C (second compound 0.003 µM, first compound 3.16 µM): 73.1%
viability, T/C (second compound 0.003 µM, first compound 10 µM): 45.5%
viability, T/C (second compound 0.00949 µM, first compound 0.0316 µM): 76.9%
viability, T/C (second compound 0.00949 µM, first compound 0.1 µM): 81.5%
viability, T/C (second compound 0.00949 µM, first compound 0.316 µM): 83.8%
viability, T/C (second compound 0.00949 µM, first compound 1 µM): 73%
viability, T/C (second compound 0.00949 µM, first compound 3.16 µM): 60.3%
viability, T/C (second compound 0.00949 µM, first compound 10 µM): 54.4%
viability, T/C (second compound 0.03 µM, first compound 0.0316 µM): 52.4%
viability, T/C (second compound 0.03 µM, first compound 0.1 µM): 56.2%
viability, T/C (second compound 0.03 µM, first compound 0.316 µM): 47.1%
viability, T/C (second compound 0.03 µM, first compound 1 µM): 46.3%
viability, T/C (second compound 0.03 µM, first compound 3.16 µM): 43%
viability, T/C (second compound 0.03 µM, first compound 10 µM): 39.2%
viability, T/C (second compound 0.0949 µM, first compound 0.0316 µM): 51.7%
viability, T/C (second compound 0.0949 µM, first compound 0.1 µM): 48.2%
viability, T/C (second compound 0.0949 µM, first compound 0.316 µM): 45.1%
viability, T/C (second compound 0.0949 µM, first compound 1 µM): 45.9%
viability, T/C (second compound 0.0949 µM, first compound 3.16 µM): 40.5%
viability, T/C (second compound 0.0949 µM, first compound 10 µM): 41.7%
viability, T/C (second compound 0.3 µM, first compound 0.0316 µM): 40.5%
viability, T/C (second compound 0.3 µM, first compound 0.1 µM): 38.4%
viability, T/C (second compound 0.3 µM, first compound 0.316 µM): 39%
viability, T/C (second compound 0.3 µM, first compound 1 µM): 38.1%
viability, T/C (second compound 0.3 µM, first compound 3.16 µM): 35.8%
viability, T/C (second compound 0.3 µM, first compound 10 µM): 30.4%

Structure (SMILES): CNCc1ccc(-c2cc(-c3nc(-c4ccc(S(=O)(=O)C(C)C)cc4)cnc3N)on2)cc1 + CC[C@@]1(O)C(=O)OCc2c1cc1n(c2=O)Cc2cc3c(CN(C)C)c(O)ccc3nc2-1
IC50 [1]: 497 nM
IC50 [2]: 393 nM
IC50 [3]: 149 nM
IC50 [4]: 22.6 nM
IC50 [5]: < 9.49 nM
viability, T/C (second compound 0.003 µM, first compound 0.00949 µM): 94.4%
viability, T/C (second compound 0.003 µM, first compound 0.03 µM): 102%
viability, T/C (second compound 0.003 µM, first compound 0.0949 µM): 105%
viability, T/C (second compound 0.003 µM, first compound 0.3 µM): 64.2%
viability, T/C (second compound 0.003 µM, first compound 0.949 µM): 30.1%
viability, T/C (second compound 0.003 µM, first compound 3 µM): 9.59%
viability, T/C (second compound 0.00949 µM, first compound 0.00949 µM): 103%
viability, T/C (second compound 0.00949 µM, first compound 0.03 µM): 99.7%
viability, T/C (second compound 0.00949 µM, first compound 0.0949 µM): 88.2%
viability, T/C (second compound 0.00949 µM, first compound 0.3 µM): 53.7%
viability, T/C (second compound 0.00949 µM, first compound 0.949 µM): 30%
viability, T/C (second compound 0.00949 µM, first compound 3 µM): 9.92%
viability, T/C (second compound 0.03 µM, first compound 0.00949 µM): 60.8%
viability, T/C (second compound 0.03 µM, first compound 0.03 µM): 63.6%
viability, T/C (second compound 0.03 µM, first compound 0.0949 µM): 62.6%
viability, T/C (second compound 0.03 µM, first compound 0.3 µM): 32.5%
viability, T/C (second compound 0.03 µM, first compound 0.949 µM): 17.3%
viability, T/C (second compound 0.03 µM, first compound 3 µM): 9.44%
viability, T/C (second compound 0.0949 µM, first compound 0.00949 µM): 55.3%
viability, T/C (second compound 0.0949 µM, first compound 0.03 µM): 49.5%
viability, T/C (second compound 0.0949 µM, first compound 0.0949 µM): 24.9%
viability, T/C (second compound 0.0949 µM, first compound 0.3 µM): 16.2%
viability, T/C (second compound 0.0949 µM, first compound 0.949 µM): 11.7%
viability, T/C (second compound 0.0949 µM, first compound 3 µM): 7.2%
viability, T/C (second compound 0.3 µM, first compound 0.00949 µM): 43%
viability, T/C (second compound 0.3 µM, first compound 0.03 µM): 29.2%
viability, T/C (second compound 0.3 µM, first compound 0.0949 µM): 14.9%
viability, T/C (second compound 0.3 µM, first compound 0.3 µM): 9.3%
viability, T/C (second compound 0.3 µM, first compound 0.949 µM): 7.79%
viability, T/C (second compound 0.3 µM, first compound 3 µM): 5.02%
